The text below walks through data of PubChem BioAssay (NCI).

Several values for one entry are separate records, joined by “and”; a condition that tells them apart may be missing. Equal entries are not always repeated.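 Cells were grown in 96-well plates and exposed to each compound for 48 hours at five concentrations; endpoints were interpolated linearly between bracketing concentrations, or set to the highest concentration if not reached. GI50 = concentration required for 50% inhibition of growth. Definition used: TGI = concentration required for complete inhibition of growth.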

Some test systems named below: SN12C renal; SK-MEL-2 melanoma; SK-OV-3 ovarian; 786-0 renal; CCRF-CEM leukemia; U251 CNS; ACHN renal; RPMI-8226 leukemia; NCI-H23 lung; UACC-62 melanoma.
Assay in all cases: NCI-60 cell line screen, 48 h

For `Cc1ccc(NC(=O)/C(=N\NC(N)=S)C(C#N)c2ccccc2C)cc1C` (stereo not drawn), the TGI in the experiment on SN12C renal, in the experiment with SK-MEL-2 melanoma, in the experiment with SK-OV-3 ovarian, with 786-0 renal, with CCRF-CEM leukemia and with U251 CNS was > 100 µM each time. Moreover, the TGI with ACHN renal, in the experiment on RPMI-8226 leukemia, in the experiment with NCI-H23 lung and in the experiment on UACC-62 melanoma was > 100 µM throughout.

In the case of `C=C1C(=O)OC2CC1C(OC(C)=O)C/C(C)=C/CC/C(C)=C\CCC2(C)O` (stereo not drawn), the TGI in the experiment with SN12C renal was 11.3 µM and 16.6 µM; with SK-MEL-2 melanoma it was 22.5 µM and > 100 µM; in the experiment with SK-OV-3 ovarian, 61.7 µM and 46.6 µM; in the experiment on 786-0 renal, 10.5 µM and 19.9 µM; in the experiment on U251 CNS, 25.2 µM and 26.7 µM; in the experiment on ACHN renal, 14.9 µM and 7.78 µM. Besides, the TGI with RPMI-8226 leukemia was 7.9 µM and 7.55 µM; with NCI-H23 lung, 22.4 µM and 4.44 µM; in the experiment with UACC-62 melanoma, 26.1 µM and 12.9 µM. In addition, the GI50 was 8.67 µM and 21.4 µM in the experiment on SK-MEL-2 melanoma; 0.469 µM and 2.36 µM with CCRF-CEM leukemia; 7.77 µM and 1.84 µM with NCI-H23 lung; 11.3 µM and 2.89 µM in the experiment on UACC-62 melanoma.

As to `CCc1nc2ccccc2c(=O)n1/N=C(\N=Nc1ccc(Cl)cc1)c1ccccc1`, the TGI in the experiment with SN12C renal was > 100 µM; in the experiment on SK-MEL-2 melanoma, 82.5 µM; in the experiment with SK-OV-3 ovarian it was 62 µM; with 786-0 renal, 59.2 µM; in the experiment with CCRF-CEM leukemia, > 100 µM; with U251 CNS it was > 87.8 µM. Further, the TGI in the experiment on ACHN renal was > 92.4 µM; in the experiment on RPMI-8226 leukemia it was > 100 µM; in the experiment on NCI-H23 lung, > 100 µM; with UACC-62 melanoma, > 100 µM.

In the case of `O=Cc1ccc(-c2ccc(-c3ccc(C=O)o3)[se]2)o1`, the GI50 in the experiment on SN12C renal is > 100 µM; with SK-MEL-2 melanoma, > 100 µM; in the experiment on SK-OV-3 ovarian it was > 85.8 µM; with 786-0 renal it was 53.2 µM; with CCRF-CEM leukemia, > 100 µM; in the experiment with U251 CNS, 44.8 µM. The GI50 in the experiment on ACHN renal is 45.5 µM; in the experiment with RPMI-8226 leukemia, > 100 µM; in the experiment on NCI-H23 lung, 56.3 µM; in the experiment on UACC-62 melanoma it was > 100 µM. Further, the TGI with SN12C renal, in the experiment with SK-MEL-2 melanoma, in the experiment on SK-OV-3 ovarian, in the experiment on 786-0 renal, in the experiment with CCRF-CEM leukemia and in the experiment on U251 CNS was > 100 µM throughout. Further, the TGI with ACHN renal, with RPMI-8226 leukemia, in the experiment with NCI-H23 lung and in the experiment on UACC-62 melanoma was > 100 µM throughout.

Turning to `CCCCN(CCCC)CC(C(=O)Nc1ccc([N+](=O)[O-])cc1[N+](=O)[O-])/C(C)=N\NC(=O)C[N+](C)(C)C` (stereo not drawn), the TGI in the experiment with SN12C renal, with SK-MEL-2 melanoma, in the experiment with SK-OV-3 ovarian, in the experiment with 786-0 renal, in the experiment with CCRF-CEM leukemia and with U251 CNS was > 100 µM each time. The TGI in the experiment on ACHN renal is > 100 µM; in the experiment on RPMI-8226 leukemia, 73.8 µM; in the experiment with NCI-H23 lung, > 100 µM; with UACC-62 melanoma, > 100 µM.

In the case of `O=C1C=CC(=O)N1c1ccc(I)cc1`, the TGI in the experiment with SN12C renal was 48 µM; in the experiment on SK-MEL-2 melanoma, 40.7 µM; with SK-OV-3 ovarian, 32.5 µM; with 786-0 renal it was 20.7 µM; in the experiment on CCRF-CEM leukemia, 12 µM; in the experiment with U251 CNS it was > 54.9 µM. Further, the TGI in the experiment with ACHN renal amounted to 33.3 µM; with RPMI-8226 leukemia, 22.1 µM; in the experiment on NCI-H23 lung, 51.2 µM; in the experiment on UACC-62 melanoma, 31.8 µM.

As to `FC(F)(F)c1ccc(-c2ncc(-c3ccc(C(F)(F)F)cc3)c(NCc3cc(C(F)(F)F)cc(C(F)(F)F)c3)n2)cc1`, the GI50 is 3.65 µM in the experiment on SN12C renal; 2.84 µM with SK-MEL-2 melanoma; 7.03 µM in the experiment with SK-OV-3 ovarian; 3.87 µM in the experiment with 786-0 renal; 4.34 µM with CCRF-CEM leukemia; 3.57 µM with U251 CNS. Besides, the GI50 in the experiment with ACHN renal was 3.91 µM; with RPMI-8226 leukemia it was 4.24 µM; with NCI-H23 lung it was 3.24 µM; with UACC-62 melanoma, 3.77 µM. The TGI with SN12C renal was > 100 µM; in the experiment on SK-MEL-2 melanoma, 8.93 µM; in the experiment with SK-OV-3 ovarian it was 55.2 µM; in the experiment on 786-0 renal, > 100 µM; with CCRF-CEM leukemia, > 100 µM; with U251 CNS, > 100 µM. The TGI with ACHN renal is > 100 µM; in the experiment with RPMI-8226 leukemia it was 35.3 µM; with NCI-H23 lung, 23.8 µM; in the experiment on UACC-62 melanoma it was > 100 µM.

On to `O=C(O)c1ccc(Oc2nc3ccccc3s2)cc1`, for which the TGI in the experiment with SN12C renal, with SK-MEL-2 melanoma, with SK-OV-3 ovarian, in the experiment on 786-0 renal, in the experiment on CCRF-CEM leukemia and with U251 CNS was > 100 µM in each case. Also, the TGI with ACHN renal, in the experiment with RPMI-8226 leukemia, with NCI-H23 lung and in the experiment on UACC-62 melanoma was > 100 µM each time.

In the case of `COc1cc(/C=C/C(=O)c2c(C)nc3ccccc3c2C)ccc1OCCCCOc1cc2c(cc1OC)C(=O)N1CCC[C@H]1C=N2`, the GI50 was 0.509 µM in the experiment with SN12C renal; 0.414 µM with SK-MEL-2 melanoma; 1.18 µM in the experiment with SK-OV-3 ovarian; 0.602 µM with 786-0 renal; 0.225 µM with CCRF-CEM leukemia; 0.305 µM in the experiment with U251 CNS. The GI50 in the experiment with ACHN renal was 1.46 µM; in the experiment with RPMI-8226 leukemia it was 0.209 µM; in the experiment on NCI-H23 lung, 0.396 µM; in the experiment with UACC-62 melanoma it was 0.6 µM. Further, the TGI was determined as 9.87 µM in the experiment on SN12C renal; 0.978 µM with SK-MEL-2 melanoma; 3.08 µM with SK-OV-3 ovarian; 1.86 µM in the experiment on 786-0 renal; 1.48 µM with CCRF-CEM leukemia; 0.955 µM in the experiment with U251 CNS. The TGI in the experiment on ACHN renal was determined as 3.22 µM; in the experiment with RPMI-8226 leukemia it was 0.585 µM; in the experiment on NCI-H23 lung, 1.42 µM; in the experiment on UACC-62 melanoma it was 2.02 µM.

For the molecule `O=C(/C=C/c1nnc2n(Cc3ccccc3)c(=O)c3c4c(sc3n12)CCCC4)c1ccccc1`, the GI50 with SK-MEL-2 melanoma was 3.2 µM; in the experiment with SK-OV-3 ovarian, > 100 µM; in the experiment with 786-0 renal, 1.56 µM and 2.36 µM; with CCRF-CEM leukemia it was 0.328 µM and 0.205 µM; in the experiment on U251 CNS it was 2.22 µM; in the experiment on ACHN renal, 3.9 µM. The GI50 with RPMI-8226 leukemia is 0.177 µM and 0.254 µM; in the experiment on NCI-H23 lung, > 100 µM; in the experiment with UACC-62 melanoma it was > 100 µM. The TGI with SK-OV-3 ovarian was > 100 µM; in the experiment with CCRF-CEM leukemia, 4.69 µM and 0.699 µM; in the experiment on U251 CNS, 7.76 µM; in the experiment on RPMI-8226 leukemia, 0.817 µM and 0.738 µM; in the experiment on NCI-H23 lung it was > 100 µM; in the experiment with UACC-62 melanoma, > 100 µM.
